Results from ChEMBL document CHEMBL1201862, “PubChem BioAssay data set” (2004).
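1) Cells in 96-well plates. 2) Compound, 48 h, 5 concentrations. 3) Linear interpolation between surrounding doses. 4) Unreached endpoint = highest concentration. GI50 = concentration required for 50% inhibition of growth.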 Calls of active or inactive are those of the source. Rule as the data show it: active = GI50 up to about 1.1 µM and inactive = higher.

Legend:
Test in all cases: growth of human tumour cells (NCI), 48 h
T47D = system: T47D
NCI-H23 = system: NCI-H23
RPMI-8226 = system: RPMI-8226
HOP-92 = system: HOP-92
HCT-15 = system: HCT-15
SF-539 = system: SF-539
LOX IMVI = system: LOX IMVI
Hs-578T = system: Hs-578T
SF-268 = system: SF-268
HT-29 = system: HT-29
SR = system: SR
CCRF-CEM = system: CCRF-CEM
KM12 = system: KM12
M14 = system: M14
HOP-62 = system: HOP-62
MDA-MB-435 = system: MDA-MB-435
SK-MEL-5 = system: SK-MEL-5
SK-MEL-2 = system: SK-MEL-2
SK-OV-3 = system: SK-OV-3
UACC-62 = system: UACC-62

| SMILES | GI50 (T47D) | GI50 (NCI-H23) | GI50 (RPMI-8226) | GI50 (HOP-92) | GI50 (HCT-15) | GI50 (SF-539) | GI50 (LOX IMVI) | GI50 (Hs-578T) | GI50 (SF-268) | GI50 (HT-29) | GI50 (SR) | GI50 (CCRF-CEM) | GI50 (KM12) | GI50 (M14) | GI50 (HOP-62) | GI50 (MDA-MB-435) | GI50 (SK-MEL-5) | GI50 (SK-MEL-2) | GI50 (SK-OV-3) | GI50 (UACC-62) |
| --- | --- | --- | --- | --- | --- | --- | --- | --- | --- | --- | --- | --- | --- | --- | --- | --- | --- | --- | --- | --- |
| BrCC[N+]12CC[N+](CCBr)(CC1)C2 | > 100 µM (inactive) | > 100 µM (inactive) | > 100 µM (inactive) | > 100 µM (inactive) | > 100 µM | > 100 µM (inactive) | > 100 µM (inactive) | > 100 µM (inactive) | > 100 µM (inactive) | > 100 µM (inactive) | > 100 µM (inactive) | > 100 µM (inactive) | > 100 µM (inactive) | > 100 µM (inactive) | 39.1 µM (inactive) | > 100 µM (inactive) | > 100 µM (inactive) | > 100 µM (inactive) | > 100 µM (inactive) | > 100 µM (inactive) |
| O=C(O)c1nn[nH]c1S | > 100 µM (inactive) | > 100 µM (inactive) | > 100 µM (inactive) | 4.59 µM (inactive) | > 100 µM | 30.6 µM (inactive) | > 100 µM (inactive) | > 100 µM (inactive) | > 100 µM (inactive) | > 100 µM (inactive) | > 100 µM (inactive) | > 100 µM (inactive) | > 100 µM (inactive) | > 100 µM (inactive) | > 100 µM (inactive) | > 100 µM (inactive) | > 100 µM (inactive) | > 100 µM (inactive) | > 100 µM (inactive) | > 100 µM (inactive) |
| CN(C)CCCC12CCCCC1=Nc1ccccc12 (stereo not given) | > 100 µM (inactive) | > 100 µM (inactive) | 65.5 µM (inactive) | > 100 µM (inactive) | > 100 µM | > 100 µM (inactive) | > 100 µM (inactive) | > 100 µM (inactive) | > 100 µM (inactive) | > 100 µM (inactive) | 22.5 µM (inactive) | 76.6 µM (inactive) | > 100 µM (inactive) | > 100 µM (inactive) | > 100 µM (inactive) | 94.6 µM (inactive) | > 100 µM (inactive) | > 100 µM (inactive) | > 100 µM (inactive) | > 100 µM (inactive) |
| COc1ccc(C(=O)Cn2c(C(=O)/C=C/c3ccco3)nc3ccccc32)cc1 | 66.7 µM (inactive) | 42.4 µM (inactive) | 19.3 µM (inactive) | 51.4 µM (inactive) | 33.3 µM | 34 µM (inactive) | 25.8 µM (inactive) | 25.3 µM (inactive) | 24.5 µM (inactive) | 36.6 µM (inactive) | 10 µM (inactive) | 25.1 µM (inactive) | 28.3 µM (inactive) | 36.6 µM (inactive) | 46 µM (inactive) | 24.4 µM (inactive) | 26.7 µM (inactive) | 17.5 µM (inactive) | 37.3 µM (inactive) | 27.4 µM (inactive) |
| Cc1c(/C=N/NC(=S)Nc2cccc(Cl)c2)c(=O)n(-c2ccccc2)n1C | 30.4 µM (inactive) | 28.7 µM (inactive) | 40.9 µM (inactive) | 13.3 µM (inactive) | 3.91 µM | 17.1 µM (inactive) | 46.8 µM (inactive) | 13.9 µM (inactive) | 16.4 µM (inactive) | 27.9 µM (inactive) | 50.1 µM (inactive) | 22.6 µM (inactive) | 18.7 µM (inactive) | 16.6 µM (inactive) | 13.9 µM (inactive) | > 100 µM (inactive) | 36.1 µM (inactive) | 18.6 µM (inactive) | 18.2 µM (inactive) | 30.7 µM (inactive) |
| O=c1c2nc(-c3ccccc3)oc2n(-c2ccccc2)c(=O)n1-c1ccccc1 | 37.9 µM (inactive) | 43.2 µM (inactive) | > 46.5 µM (inactive) | 14.4 µM (inactive) | > 46.5 µM | 20.2 µM (inactive) | 38.5 µM (inactive) | 21.9 µM (inactive) | 20.7 µM (inactive) | > 46.5 µM (inactive) | > 31.6 µM (inactive) | > 46.5 µM (inactive) | 33.2 µM (inactive) | > 46.5 µM (inactive) | 17.5 µM (inactive) | > 46.5 µM (inactive) | 23.7 µM (inactive) | > 46.5 µM (inactive) | 21.5 µM (inactive) | 31.1 µM (inactive) |
